{"source": "paper PMC9228955", "about": "“Synthesis, Physicochemical, Labeling and In Vivo Characterization of ^44Sc-Labeled DO3AM-NI as a Hypoxia-Sensitive PET Probe” (Pharmaceuticals, 2022)", "key": {"[1]": {"tested_on": "KB tumors", "assay": "Ex vivo biodistribution in KB tumor xenografts", "set-up": "species or system CB17 SCID mice", "settings": "for KB tumor uptake: 13 ± 1 days after subcutaneous tumor induction, n = 5, mean ± SD", "method": "For the assessment of the accumulation in the tumors of [^44Sc]Sc(DO3AM-NI) and [^68Ga]Ga(DO3AM-NI), ex vivo biodistribution studies were performed 90 and 240 min post injection using KB tumor xenografts.\n(§1) For tumor induction, SCID mice were injected with 5x10^6 KB tumor cells in 0.9% NaCl (100 µL) subcutaneously into the left shoulder area. The tumor growth was assessed by caliper measurements, and tumor size was calculated using the following formula: (largest diameter × smallest diameter^2)/2. In vivo experiments were carried out approximately 13 ± 1 days after […] injection of tumor cells at the tumor volume of approximately 110 mm^3.\n(§2) For the determination of ex vivo biodistribution of the radiotracers, control and KB tumor-bearing mice were injected intravenously with 8.42 ± 0.38 MBq of ^68Ga- or ^44Sc-labeled DO3AM-NI via the tail vein. Mice were euthanized with 5% isoflurane 90 min or 4 h after intravenous radiotracer injection. Three tissue samples were taken from the selected organs, and their weight and radioactivity were measured with a calibrated gamma counter (Perkin-Elmer Packard Cobra, Waltham, MA, USA). The radiotracer uptake was expressed as %ID/g tissue."}, "[2]": {"tested_on": "KB tumors", "assay": "In vivo PET/MRI imaging of KB tumor-bearing mice, quantitative SUV analysis", "set-up": "species or system CB17 SCID mice", "settings": "240 min after injection", "method": "The tumor-specific accumulation of [^44Sc]Sc(DO3AM-NI) and [^68Ga]Ga(DO3AM-NI) was investigated by PET/MRI imaging 90 and 240 min after radiotracer injection using KB tumor-bearing mice. The subcutaneously growing KB tumors were clearly visualized using [^44Sc]Sc(DO3AM-NI) 90 and 240 min post injection with relatively higher SUVmean and SUVmax values (SUVmean: 1.46 ± 0.32 and SUVmax: 2.35 ± 0.47 at 90 min and SUVmean: 0.67 ± 0.03 and SUVmax: 1.55 ± 0.28 at 240 min). Lower accumulation was found in the same KB tumors by using the ^68Ga-labeled molecule (SUVmean: 0.79 ± 0.10, SUVmax: 1.94 ± 0.40 at 90 min and SUVmean: 0.51 ± 0.09 and SUVmax: 1.23 ± 0.10 at 240 min); however, this difference between the radiotracers was not significant (Figure 4E). […] In contrast, no significant differences were found between the T/M SUV values of the two radiotracers 90 min post injection (Figure 4F).\nas §1\n(§3) For in vivo imaging studies, healthy control and KB tumor-bearing CB17 SCID mice were injected with 8.42 ± 0.38 MBq of ^68Ga- or ^44Sc-labeled DO3AM-NI via the lateral tail vein 13 ± 1 days after the inoculation of KB tumor cells. Then, 65 and 225 min after radiotracer injection, mice were anaesthetized by 3% isoflurane (Forane) with a dedicated small animal anesthesia device and whole-body T1-weighted MRI scans were performed (3D GRE EXT multi-FOV; TR/TE 15/2 ms; phase: 100; FOV 60 mm; NEX 2) using the preclinical nanoScan PET/MRI system with 1 Tesla magnetic field (Mediso Ltd., Hungary). After MRI imaging, 20 min static whole-body PET scans were acquired (90 min and 4 h after radiotracer injection).\nQuantitative radiotracer uptake was expressed in terms of standardized uptake value (SUV), SUV = [VOI activity (Bq/mL)]/[injected activity (Bq)/animal weight (g)], assuming a density of 1 g/mL. Volumes of interest (VOI) were manually drawn around the edge of the organ or tumor activity using the InterView™ FUSION (Mediso Ltd., Hungary) image analysis software. Tumor-to-muscle (T/M) ratios were computed as the ratio between the activity in the tumor VOI and in the background (muscle) VOI. Skeletal muscles of the right shoulder area were used as background."}, "[3]": {"assay": "In vivo PET/MRI imaging of healthy control SCID mice, quantitative SUV analysis", "set-up": "species or system CB17 SCID mice", "settings": "90 and 240 min after tracer injection", "method": "The biodistribution of ^44Sc- and ^68Ga-labeled DO3AM-NI was investigated using healthy control and KB tumor-bearing SCID mice. PET/MRI imaging and ex vivo studies were performed 90 and 240 min after intravenous injection of ^44Sc- or ^68Ga-labeled DO3AM-NI. By the qualitative analysis of the PET/MRI images, the kidneys and the bladder with urine were clearly visualized using both radiotracers at each investigated time point; however, in other abdominal and thoracic organs, low uptake was observed.\nas §3, with “After MRI imaging, 20 min static whole-body PET scans were acquired (90 min and 4 h after radiotracer injection).” left out\nQuantitative radiotracer uptake was expressed in terms of standardized uptake value (SUV), SUV = [VOI activity (Bq/mL)]/[injected activity (Bq)/animal weight (g)], assuming a density of 1 g/mL. […]"}, "[4]": {"assay": "Octanol/water partition coefficient (logP) of labeled complexes", "format": "physicochemical", "settings": "1-octanol/water, triplicates", "method": "(§4) Subsequently, the octanol/water partition coefficient (logP) of the labeled complexes was determined to be −3.89 for [^68Ga]Ga(DO3AM-NI) and −2.59 for [^44Sc]Sc(DO3AM-NI). […] To assess the labeled compounds’ stability, the chelates were mixed with the solution of mouse plasma, Na2H2EDTA and oxalic acid, respectively. Aliquots were then taken at different time points (0, 60, 120 and 240 min) and injected into the radio-HPLC column, and the chromatograms were analyzed. After 240 min, the RCP of the samples was above 93% in all three cases.\nA 10 µL volume of [^68Ga]Ga(DO3AM-NI) and [^44Sc]Sc(DO3AM-NI) solution (~5 MBq) was mixed with 500 µL of 1-octanol and 490 µL of water in an Eppendorf vial, respectively. The mixture was shaken with a vortex shaker (600 rpm) for 10 min and centrifuged (6000 rpm) for 5 min. Then, 100 µL from the octanol phase and 1 μL from the aqueous phase were pipetted into vials, and the aqueous aliquot was diluted to 100 µL with water in order to minimize the effects of sample geometry and the high difference of activity concentrations in the two solvents. The radioactivity of the fractions was determined with a gamma counter. The measurements were performed in triplicates for both labeled compounds."}, "[5]": {"assay": "Ex vivo biodistribution in healthy control SCID mice", "set-up": "species or system CB17 SCID mice", "settings": "mean ± SD", "method": "Ex vivo biodistribution studies were carried out 90 min and 240 min after intravenous injection of ^44Sc- or ^68Ga-labeled DO3AM-NI, and the accumulated activities of the organs and tissues were determined using a gamma counter. By the quantitative analysis of the ex vivo data, significant differences were found between the %ID/g values when ^44Sc- and ^68Ga-labeled DO3AM-NI accumulations were compared. […] In contrast, e.g., [^18F]fluorine- [28], [^131I]iodine- [29], [^99mTc]technetium- [30] and [^64Cu]copper-labeled nitroimidazole-based probes, due to their chemical properties, were mainly metabolized via the liver, and the large abdominal accumulation impaired the evaluation of abdominal tumors in the PET images. The ^44Sc- and ^68Ga-labeled nitroimidazole derivatives had more favorable properties in terms of the reporting and evaluation of PET images and due to their rapid elimination through the urinary system.\nas §2"}, "[6]": {"assay": "Stability of labeled complexes in mouse plasma, Na2H2EDTA and oxalic acid by radio-HPLC", "format": "in vitro ADME", "method": "as §4\nA 10 µL volume of [^68Ga]Ga(DO3AM-NI) and [^44Sc]Sc(DO3AM-NI) solution was added to the solution of 90 µL of mouse plasma, Na2H2EDTA (0.01 M) and oxalic acid (0.01 M), respectively. Samples were analyzed by radio-HPLC at the beginning and after 60, 120 and 240 min. The analytical conditions were the same as detailed for the quality control of the labeled compound."}}, "data": [{"smiles": "O=C([O-])CN1CCN(CC(=O)[O-])CCN(CC(=O)NCCn2ccnc2[N+](=O)[O-])CCN(CC(=O)[O-])CC1.[68Ga+3]", "note": "[[^68Ga]Ga(DO3AM-NI)]", "values": [{"measurement": "T/M (tumor-to-muscle ratio)", "setting": "[1]; 90 min after injection", "value": "6.28 ± 1.11"}, {"measurement": "KB tumor uptake", "setting": "[1]; 90 min after injection", "value": "0.62 ± 0.10", "unit": "%ID/g"}, {"measurement": "T/M (tumor-to-muscle ratio)", "setting": "[1]; 240 min after injection", "value": "7.51 ± 1.13"}, {"measurement": "KB tumor uptake", "setting": "[1]; 240 min after injection", "value": "0.46 ± 0.07", "unit": "%ID/g"}, {"measurement": "tumor-to-muscle ratio T/M SUVmax", "setting": "[2]", "value": "41.72 ± 13.61"}, {"measurement": "tumor-to-muscle ratio T/M SUVmean", "setting": "[2]", "value": "85.66 ± 6.06"}, {"measurement": "uptake (SUV) in liver, spleen, kidney, intestines, lung, heart and brain compared with [^44Sc]Sc(DO3AM-NI)", "setting": "[3]", "value": "significantly (p ≤ 0.01) higher"}, {"measurement": "octanol/water partition coefficient (logP)", "setting": "[4]", "value": "−3.89"}, {"measurement": "Blood uptake", "setting": "[5]; 90 min after i.v. injection", "value": "0.81 ± 0.22", "unit": "%ID/g"}, {"measurement": "Fat uptake", "setting": "[5]; 90 min after i.v. injection", "value": "0.13 ± 0.10", "unit": "%ID/g"}, {"measurement": "Heart uptake", "setting": "[5]; 90 min after i.v. injection", "value": "0.26 ± 0.06", "unit": "%ID/g"}, {"measurement": "Kidney uptake", "setting": "[5]; 90 min after i.v. injection", "value": "1.32 ± 0.47", "unit": "%ID/g"}, {"measurement": "Large intestine uptake", "setting": "[5]; 90 min after i.v. injection", "value": "0.20 ± 0.13", "unit": "%ID/g"}, {"measurement": "Liver uptake", "setting": "[5]; 90 min after i.v. injection", "value": "0.43 ± 0.11", "unit": "%ID/g"}, {"measurement": "Lung uptake", "setting": "[5]; 90 min after i.v. injection", "value": "0.49 ± 0.08", "unit": "%ID/g"}, {"measurement": "Muscle uptake", "setting": "[5]; 90 min after i.v. injection", "value": "0.10 ± 0.03", "unit": "%ID/g"}, {"measurement": "Small intestine uptake", "setting": "[5]; 90 min after i.v. injection", "value": "0.25 ± 0.10", "unit": "%ID/g"}, {"measurement": "Spleen uptake", "setting": "[5]; 90 min after i.v. injection", "value": "0.29 ± 0.14", "unit": "%ID/g"}, {"measurement": "Stomach uptake", "setting": "[5]; 90 min after i.v. injection", "value": "0.21 ± 0.04", "unit": "%ID/g"}, {"measurement": "Urine uptake", "setting": "[5]; 90 min after i.v. injection", "value": "65.94 ± 5.21", "unit": "%ID/g"}, {"measurement": "Blood uptake", "setting": "[5]; 240 min after i.v. injection", "value": "0.65 ± 0.11", "unit": "%ID/g"}, {"measurement": "Fat uptake", "setting": "[5]; 240 min after i.v. injection", "value": "0.12 ± 0.08", "unit": "%ID/g"}, {"measurement": "Heart uptake", "setting": "[5]; 240 min after i.v. injection", "value": "0.22 ± 0.04", "unit": "%ID/g"}, {"measurement": "Kidney uptake", "setting": "[5]; 240 min after i.v. injection", "value": "1.21 ± 0.17", "unit": "%ID/g"}, {"measurement": "Large intestine uptake", "setting": "[5]; 240 min after i.v. injection", "value": "0.15 ± 0.06", "unit": "%ID/g"}, {"measurement": "Liver uptake", "setting": "[5]; 240 min after i.v. injection", "value": "0.37 ± 0.10", "unit": "%ID/g"}, {"measurement": "Lung uptake", "setting": "[5]; 240 min after i.v. injection", "value": "0.46 ± 0.09", "unit": "%ID/g"}, {"measurement": "Muscle uptake", "setting": "[5]; 240 min after i.v. injection", "value": "0.06 ± 0.03", "unit": "%ID/g"}, {"measurement": "Small intestine uptake", "setting": "[5]; 240 min after i.v. injection", "value": "0.14 ± 0.04", "unit": "%ID/g"}, {"measurement": "Spleen uptake", "setting": "[5]; 240 min after i.v. injection", "value": "0.32 ± 0.18", "unit": "%ID/g"}, {"measurement": "Stomach uptake", "setting": "[5]; 240 min after i.v. injection", "value": "0.22 ± 0.06", "unit": "%ID/g"}, {"measurement": "Urine uptake", "setting": "[5]; 240 min after i.v. injection", "value": "17.08 ± 7.97", "unit": "%ID/g"}, {"measurement": "RCP after 240 min", "setting": "[6]; Na2H2EDTA (0.01 M)", "value": "above 93%"}, {"measurement": "RCP after 240 min", "setting": "[6]; mouse plasma", "value": "above 93%"}, {"measurement": "RCP after 240 min", "setting": "[6]; oxalic acid (0.01 M)", "value": "above 93%"}]}]}
